Source: US10214512B2, “Factor XIA inhibitors” (MERCK SHARP & DOHME CORP., priority 2015, dated 2019)

Biological target: purified Human plasma Kallikrein (Homo sapiens (Human), UniProt P03952)
Test: Kallikrein Assay
Type: biochemical
Details: purified Human plasma Kallikrein 0.5 nM; substrate Acetyl-K-P-R-AFC; 50 mM HEPES pH 7.4; Ki from IC50 by Cheng Prusoff
Procedure: (§1) The effectiveness of a compound of the present invention as an inhibitor of Kallikrein can be determined using a relevant purified serine protease, and an appropriate synthetic substrate. The rate of hydrolysis of the chromogenic or fluorogenic substrate by the relevant serine protease was measured both in the absence and presence of compounds of the present invention. Assays were conducted at rt or at 37° C. […] A decrease in the rate of fluorescence change in the presence of inhibitor is indicative of enzyme inhibition. Such methods are known to one skilled in the art. The results of this assay are expressed as the inhibitory constant, Ki.
Kallikrein determinations were made in 50 mM HEPES buffer at pH 7.4 containing 150 mM NaCl, 5 mM CaCl2, and 0.1% PEG 8000 (polyethylene glycol; Fisher Scientific). Determinations were made using purified Human plasma Kallikrein at a final concentration of 0.5 nM (Enzyme Research Laboratories) and the synthetic substrate, Acetyl-K-P-R-AFC (Sigma # C6608) at a concentration of […].
Times required to achieve equilibration between enzyme and inhibitor were determined in control experiments. […] IC50 was determined by inflection point from a four parameter logistic curve fit. Ki was calculated using the Cheng Prusoff equation, Ki=IC50/(1+([S]/Km)).

Chain of purified Human plasma Kallikrein (P03952 391-638): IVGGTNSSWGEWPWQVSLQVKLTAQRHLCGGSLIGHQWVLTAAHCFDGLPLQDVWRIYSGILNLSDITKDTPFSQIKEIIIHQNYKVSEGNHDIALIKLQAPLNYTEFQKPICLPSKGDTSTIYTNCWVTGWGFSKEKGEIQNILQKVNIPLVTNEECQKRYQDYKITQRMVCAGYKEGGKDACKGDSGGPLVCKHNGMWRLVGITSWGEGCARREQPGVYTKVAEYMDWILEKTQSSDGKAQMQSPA
Chain of purified Human plasma Kallikrein (P03952 20-390 partner): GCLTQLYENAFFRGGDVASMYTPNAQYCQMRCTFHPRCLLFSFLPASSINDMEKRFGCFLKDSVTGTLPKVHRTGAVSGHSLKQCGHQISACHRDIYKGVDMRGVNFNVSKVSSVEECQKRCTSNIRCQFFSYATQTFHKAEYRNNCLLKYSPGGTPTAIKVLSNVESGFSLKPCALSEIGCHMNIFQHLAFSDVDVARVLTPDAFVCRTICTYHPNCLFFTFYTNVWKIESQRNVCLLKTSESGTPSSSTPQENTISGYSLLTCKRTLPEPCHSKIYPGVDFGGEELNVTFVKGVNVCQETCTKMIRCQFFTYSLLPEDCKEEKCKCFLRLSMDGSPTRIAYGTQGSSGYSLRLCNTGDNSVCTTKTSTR

Ki [nM] | Compound
10.8 | COC(=O)Nc1ccc2c(c1)NC(=O)C(C)CCCC(c1ccc(-c3c(F)ccc(Cl)c3F)cn1)c1cc-2ccn1 (single isomer, unassigned) [Example 95-d, Methyl (9-(5-(3-chloro-2,6-difluorophenyl)pyridin-2-yl)-5-methyl-4-oxo-3-aza-1(4,2)-pyridina-2(1,2)-benzenacyclononaphane-2^4-yl)carbamate]
7.71 | COC(=O)Nc1ccc2c(c1)NC(=O)[C@@H](C)CCC[C@H](c1ccc(-c3cc(F)ccc3OC(F)(F)F)c[n+]1[O-])c1nc-2c(C)[nH]1 (single isomer, unassigned) [Example 149-c]
31.2 | COC(=O)Nc1ccc2c(c1)NC(=O)[C@@H](C)CCC[C@@H](c1ccc(-c3c(OC(F)F)ccc(F)c3F)c[n+]1[O-])c1nc-2c(C)[nH]1 (single isomer, unassigned) [Example 150-b]
5.32 | COC(=O)Nc1ccc2c(c1)NC(=O)CCCCC(c1ccc(-c3c(F)cccc3OC(F)(F)F)c[n+]1[O-])c1nc-2c(C)[nH]1 (single isomer, unassigned) [Example 131]

Biological target: purified human Factor XIa (Homo sapiens (Human), UniProt P03951)
Test: Factor XIa Assay
Type: biochemical
Details: purified human Factor XIa 40 pM; substrate Z-Gly-Pro-Arg-AFC 100 μM; 50 mM HEPES pH 7.4; read-out: Human FXIa Ki
Procedure: as §1, with “Coagulation Factor XIa” for “Kallikrein”
Factor XIa determinations were made in 50 mM HEPES buffer at pH 7.4 containing 150 mM NaCl, 5 mM CaCl2, and 0.1% PEG 8000 (polyethylene glycol; JT Baker or Fisher Scientific). Determinations were made using purified human Factor XIa at a final concentration of 40 pM (Sekisui Diagnostics) and he synthetic substrate, Z-Gly-Pro-Arg-AFC, TFA salt (Sigma #C0980) at a concentration of 100 μM.
Times required to achieve equilibration between enzyme and inhibitor were determined in control experiments. Initial velocities of product formation in the absence (Vo) or presence of inhibitor (Vi) were measured. Assuming competitive inhibition, and that unity is negligible compared Km/[S], [I]/e, and [I]/e (where [S], [I], and e respectively represent the total concentrations, of substrate, inhibitor and enzyme), the equilibrium constant (Ki) for dissociation of the inhibitor from the enzyme can be obtained from the dependence of Vo/Vi on [I] shown in the following equation.

Chain of purified human Factor XIa (P03951 388-625): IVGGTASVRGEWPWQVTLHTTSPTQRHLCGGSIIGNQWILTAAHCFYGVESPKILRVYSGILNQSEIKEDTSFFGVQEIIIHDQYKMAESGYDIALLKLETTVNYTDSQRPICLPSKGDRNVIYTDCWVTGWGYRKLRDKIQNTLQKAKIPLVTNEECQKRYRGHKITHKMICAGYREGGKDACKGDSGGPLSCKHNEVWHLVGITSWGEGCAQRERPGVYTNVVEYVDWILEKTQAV
Chain of purified human Factor XIa (P03951 19-387 partner): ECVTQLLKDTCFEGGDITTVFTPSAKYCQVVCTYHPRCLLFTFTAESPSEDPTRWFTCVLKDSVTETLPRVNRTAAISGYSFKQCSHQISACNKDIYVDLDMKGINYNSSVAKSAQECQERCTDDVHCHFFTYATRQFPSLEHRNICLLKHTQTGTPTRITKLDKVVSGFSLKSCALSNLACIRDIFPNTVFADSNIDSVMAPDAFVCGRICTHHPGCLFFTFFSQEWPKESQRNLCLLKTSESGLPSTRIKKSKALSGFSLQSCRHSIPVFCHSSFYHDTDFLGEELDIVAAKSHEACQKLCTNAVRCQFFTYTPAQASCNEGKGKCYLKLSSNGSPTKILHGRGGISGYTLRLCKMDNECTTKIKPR

Ki [nM] | Compound
> 875 | Cn1ncc2c1-c1cccc(c1)C(c1ccc(-c3c(F)ccc(Cl)c3F)c[n+]1[O-])CCCCC(=O)N2 (centres unmarked) [Example 164, 5-(3-chloro-2,6-difluorophenyl)-2-(1^1-methyl-8-oxo-1H-9-aza-1(5,4) -pyrazola-2(1,3)-benzenacyclononaphane-3-Yl)pyridine 1-oxide]
180 | COC(=O)Nc1ccc2c(c1)NC(=O)CCCCC(c1ccc(-c3c(F)ccc(Cl)c3F)c[n+]1[O-])c1ccc(F)c-2n1 (centres unmarked) [Example 74, 5-(3-chloro-2,6-difluorophenyl)-2-(1^3-fluoro-2^4-((methoxycarbonyl)amino)-4-oxo-3-aza-1(2,6)-pyridina-2(1,2)-benzenacyclononaphane-9-yl)pyridine 1-oxide]
6.8 | COC(=O)Nc1ccc2c(c1)NC(=O)CCCCC(c1ccc(-c3c(F)ccc(Cl)c3F)c[n+]1[O-])c1cnn-2c1 (racemic) [Example 162, (Z)-5-(3-chloro-2,6-difluorophenyl)-2-(2^5-((methoxycarbonyl)amino)-4-oxo-1^1H-3-aza-1(1,4)-pyrazola-2(1,2)-benzenacyclononaphane-9-yl)pyridine 1-oxide]
270 | COC(=O)Nc1ccc2c(c1)NC(=O)C(C)CCCC(c1ccc(-c3c(F)ccc(Cl)c3F)c[n+]1[O-])c1cccc-2c1 (single isomer, unassigned) [Example 50-c, 5-(3-chloro-2,6-difluorophenyl)-2-(2^4-((methoxycarbonyl)amino)-5-methyl-4-oxo-3-aza-1(1,3),2(1,2)-dinenzenacyclononaphane-9-yl)pyridine 1-oxide]
11 | O=C1CCCCC(c2ccc(-c3c(-n4cc(C(=O)O)nn4)ccc(Cl)c3F)cn2)c2cc(ncc2F)-c2cc(F)ccc2N1 (single isomer, unassigned) [Example 91-a]
> 875 | O=C1CCCC[C@H](c2ccc(-c3c(F)ccc(Cl)c3F)c[n+]2[O-])c2cccc(c2)-c2c(cnn2C(F)F)N1 (single isomer, unassigned) [Example 171]
> 875 | C[C@H]1CCC[C@@H](c2ccc(-c3cc(Cl)ccc3-n3cc(Cl)nn3)c[n+]2[O-])c2cccc(c2)-c2c(cnn2C(F)F)NC1=O (single isomer, unassigned) [Example 166-d]

The remaining lines, values behind:

Compound | Ki [nM]
C[C@H]1CCC[C@H](c2ccc(-c3cc(Cl)ccc3-n3cc(Cl)nn3)c[n+]2[O-])c2cccc(c2)-c2c(cnn2C(F)F)NC1=O (single isomer, unassigned) [Example 166-c] | 9.4
O=C1CCCCC(c2ccc(-c3c(F)ccc(Cl)c3F)cn2)c2cccc(c2)-c2cc3c(O)cc(=O)[nH]c3cc2N1 (centres unmarked) [Example 49, 3-(5-(3-chloro-2,6-difluorophenyl)pyridin-2-yl)-1^4-hydroxy-1^1,1^2-dihydro-9-aza-1 (6,7)-quinolina-2(1,3)-benzenacyclononaphane-1^2,8-dione] | 15.6
COC(=O)Nc1ccc2c(c1)NC(=O)C[C@H]1C[C@@H]1C[C@H](c1ccc(-c3c(F)ccc(Cl)c3F)c[n+]1[O-])c1nc-2c(C)[nH]1 (single isomer, unassigned) [Example 154] | 0.4
COC(=O)Nc1ccc2c(c1)NC(=O)CCCCC(c1ccc(-c3c(F)ccc(Cl)c3F)cn1)c1ccc(F)c-2c1 (centres unmarked) [Example 54, methyl (9-(5-(3-chloro-2,6-difluorophenyl)pyridin-2-yl)-1^6-fluoro-4-oxo-3-aza-1(1,3),2(1,2)-dibenzenacyclononaphane-2^4-yl)carbamate] | 839
COC(=O)Nc1ccc2c(c1)NC(=O)C(C)CCCC(c1ccc(-c3c(F)ccc(Cl)c3F)c[n+]1[O-])c1ccc(F)c-2c1 (single isomer, unassigned) [Example 86-b, 5-(3-Chloro-2,6-difluorophenyl)-2-(1^6-fluoro-2^4-((methoxycarbonyl)amino)-5-methyl-4-oxo-3-aza-1(1,3),2(1,2) -dibenzenacyclononaphane-9-yl)pyridine 1-oxide] | 782
COC(=O)Nc1ccc2c(c1)NC(=O)C[C@H]1C[C@@H]1C[C@H](c1ccc(-c3c(F)cccc3F)c[n+]1[O-])c1nc-2c(C)[nH]1 (single isomer, unassigned) [Example 155] | 11.4
COC(=O)Nc1ccc2c(c1)NC(=O)CCCC[C@H](c1ccc(-c3c(-n4cc(C(F)(F)F)cn4)ccc(Cl)c3F)c[n+]1[O-])c1nc-2c(C)[nH]1 (single isomer, unassigned) [Example 135] | 198
COC(=O)Nc1ccc2c(c1)NC(=O)CCCCC(c1ccc(-c3c(F)ccc(Cl)c3F)cn1)c1cccc-2c1 (centres unmarked) [Example 12, methyl (9-(5-(3-chloro-2,6-difluorophenyl)pyridin-2-yl)-4-oxo-3-aza-1(1,3),2(1,2)-dibenzenacyclononaphane-2^4-yl)carbamate] | 593
COC(=O)Nc1ccc2c(c1)NC(=O)CCCCC(c1ccc(-c3c(-n4cc(C(F)(F)F)cn4)ccc(Cl)c3F)c[n+]1[O-])c1nc-2c[nH]1 (centres unmarked) [Example 116] | 208
O=C1CCCCC(c2ccc(-c3cc(Cl)ccc3-n3cnnn3)cn2)c2nc(c[nH]2)-c2cc(F)ccc2N1 (single isomer, unassigned) [Example 10-a, (Z)-9-(5-(5-chloro-2-(1H-tetrazol-1-yl)phenyl)pyridin-2-yl)-2^5-fluoro-1^1H -3-aza-1(4,2)-imidazola-2(1,2)-benzenacyclononaphan-4-one] | 83.8
COC(=O)Nc1ccc2c(c1)NC(=O)CCCCC(c1ccc(-c3c(F)ccc(Cl)c3F)cn1)c1ccc(F)c-2n1 (centres unmarked) [Example 63, methyl (9-(5-(3-chloro-2,6-difluorophenyl)pyridin-2-yl)-1^3-fluoro-4-oxo-3-aza-1(2,6)-pyridina-2(1,2)-benzenacyclononaphane-2^4-yl)carbamate] | > 875
C[C@H]1CCC[C@H](c2ccc(-c3ccccc3-n3cc(Cl)nn3)c[n+]2[O-])c2cccc(c2)-c2c(cnn2C(F)F)NC1=O (single isomer, unassigned) [Example 172-b] | 11.9
COC(=O)Nc1ccc2c(c1)NC(=O)CCCCC(c1ccc(-c3c(F)ccc(Cl)c3F)cn1)c1cc(F)cc-2c1 (centres unmarked) [Example 53, methyl (9-(5-(3-chloro-2,6-difluorophenyl)pyridin-2-yl)-1^5-fluoro-4-oxo-3-aza-1(1,3),2(1,2)-dibenzenacyclononaphane-2^4-yl)carbamate] | > 875
Cn1cc2c(n1)-c1cccc(c1)C(c1ccc(-c3c(F)ccc(Cl)c3F)c[n+]1[O-])CCCCC(=O)N2 (centres unmarked) [Example 163, 5-(3-chloro-2,6-difluorophenyl)-2-(1^1-methyl-8-oxo-1^1H-9-aza-1(3,4) -pyrazola-2(1,3)-benzenacyclononaphane-3-Yl)pyridine 1-oxide] | 22.6
O=C1CCCC[C@H](c2ccc(-c3c(F)ccc(Cl)c3F)c[n+]2[O-])c2cccc(c2)-c2ccc(NC(=O)OCCO)cc2N1 [Example 46, (S)-5-(3-chloro-2,6-difluorophenyl)-2-(2^4-(((2-hydroxyethoxy)carbonyl)amino)-4-oxo-3-aza-1(1,3),2(1,2) -dinenzenacyclononaphane-9-yl)pyridine 1-oxide] | 0.24
